Assay results taken from PMC10970644, “Molecular Pharmacology of Gelsemium Alkaloids on Inhibitory Receptors” (International Journal of Molecular Sciences, 2024).
“Also recorded” adds a separate entry of the source.

Columns and labels:
α3β GlyR = target: T1, α3β GlyR (Rattus norvegicus, UniProt P20781+P24524); test: cell-based; type: cell-based
T1 construct: The cells were transfected with plasmids encoding the following proteins; expressed in transfected cells; host or cells: HEK293 (ATCC CRL-1573)
Method: (§1) The cells were transfected with plasmids encoding the following proteins: (i). rat GlyR α (1, 2, 3) subunits alone or combined with rat β subunits (Uniprot Accession Numbers: Q546L7, P22771, P20236, P20781); and (ii). rat GABAAR α1 combined with rat β2 and γ2 subunits (Uniprot Accession Numbers: P62813, P63138, P18508). The EGFP expression was used as a marker of successful protein expression. The transfection was performed using Lipofectamine 2000 (Invitrogen, ThermoFisher, Carlsbad, CA, USA) using the fabricant protocol. The plasmids used to express GlyRs and GABAARs have been previously described. To track the successful expression of GlyR β subunits and the GABAA γ2 or β2 subunit, these proteins were subcloned in the pIRES2-EGFP vector. The transfection ratio to obtain β-containing GlyRs was 1:5 of α:β, while the expression of γ2-containing GABAA receptors was 1:2:5 of α:β:γ2 [14, 15]. Chimeric GlyRs were described in a previous report. Site directed mutagenesis was performed by Charm Gene Science Mutagenex LLC. (Cumming, GA, USA). All the constructs were checked by full-length sequencing (SNPSaurus, Eugene, OR, USA).
(§2) In brief, patch electrodes (3–4 MΩ) were pulled from borosilicate glasses in a PC-100 puller (Narishige, Tokyo, Japan); then, they were filled with an intracellular solution, which contained (in mM) 120 CsCl, 8 EGTA, 10 HEPES (pH 7.4), 4 MgCl2, 0.5 GTP, and 2 ATP. The extracellular solution contained (in mM) 140 NaCl, 5.4 KCl, 2.0 CaCl2, 1.0 MgCl2, 10 HEPES (pH 7.4), and 10 glucose. Whole-cell patch-clamp recordings were performed at −60 mV with an Axoclamp 200B (Molecular Devices, Sunnyvale, CA, USA) or with HEKA EPC-10 (HEKA Elektronik GmbH, Reutlingen, Germany) amplifiers. […] Brief (3–5 s) pulses of agonist together with alkaloids were applied to cells. Stock solutions of the alkaloids were prepared in high purity distilled water. Aliquots of these stock solutions were diluted in reservoirs containing extracellular solution. […] The concentration–response curve parameters for the alkaloid inhibition (IC50, nH, and the maximal current inhibition) were obtained from the fitted curve of normalized concentration–response data points to the equation Iagonist = Imax (agonist)nH/((agonist)nH + (EC50)nH). The IC50 curves are best-fit mean ± SE from pooled data. […] The concentration of agonist corresponds to the sub-saturating agonist concentration used to obtain the IC50 for each alkaloid on a given GlyR subtype.

α1β GlyR = target: T2, α1β GlyR (Rattus norvegicus, UniProt P07727+P20781); test: cell-based
T2 construct: The cells were transfected with plasmids encoding the following proteins; expressed in transfected cells; host or cells: HEK293 (ATCC CRL-1573)
Method: as §1
(§3) In brief, patch electrodes (3–4 MΩ) were pulled from borosilicate glasses in a PC-100 puller (Narishige, Tokyo, Japan); then, they were filled with an intracellular solution, which contained (in mM) 120 CsCl, 8 EGTA, 10 HEPES (pH 7.4), 4 MgCl2, 0.5 GTP, and 2 ATP. The extracellular solution contained (in mM) 140 NaCl, 5.4 KCl, 2.0 CaCl2, 1.0 MgCl2, 10 HEPES (pH 7.4), and 10 glucose. Whole-cell patch-clamp recordings were performed at −60 mV with an Axoclamp 200B (Molecular Devices, Sunnyvale, CA, USA) or with HEKA EPC-10 (HEKA Elektronik GmbH, Reutlingen, Germany) amplifiers. […] Brief (3–5 s) pulses of agonist together with alkaloids were applied to cells. Stock solutions of the alkaloids were prepared in high purity distilled water. Aliquots of these stock solutions were diluted in reservoirs containing extracellular solution. […] The concentration–response curve parameters for the alkaloid inhibition (IC50, nH, and the maximal current inhibition) were obtained from the fitted curve of normalized concentration–response data points to the equation Iagonist = Imax (agonist)nH/((agonist)nH + (EC50)nH). The IC50 curves are best-fit mean ± SE from pooled data. […] The inhibition constant (Ki) was calculated using the Cheng–Prusoff equation (Ki = IC50/((2 + ([Agonist]/EC50)^nH)^1/nH − 1). The concentration of agonist corresponds to the sub-saturating agonist concentration used to obtain the IC50 for each alkaloid on a given GlyR subtype.

α1β2γ2 GABAARs = target: T3, α1β2γ2 GABAARs (Rattus norvegicus, UniProt P62813+P63138); type: cell-based; conditions: 50 μM alkaloid; 1 μM GABA
T3 construct: The cells were transfected with plasmids encoding the following proteins; expressed in transfected cells; host or cells: HEK293 (ATCC CRL-1573)
Method: as §1, §2

α2β GlyR = target: T4, α2β GlyR (Rattus norvegicus, UniProt P20781+P22771); test: cell-based; type: cell-based
T4 construct: The cells were transfected with plasmids encoding the following proteins; expressed in transfected cells; host or cells: HEK293 (ATCC CRL-1573)
Method: as §1, §3

α2 GlyR = target: T5, α2 GlyR (Rattus norvegicus, UniProt P22771); test: cell-based; type: cell-based
T5 construct: The cells were transfected with plasmids encoding the following proteins; expressed in transfected cells; host or cells: HEK293 (ATCC CRL-1573)
T5 sequence (P22771 28-452): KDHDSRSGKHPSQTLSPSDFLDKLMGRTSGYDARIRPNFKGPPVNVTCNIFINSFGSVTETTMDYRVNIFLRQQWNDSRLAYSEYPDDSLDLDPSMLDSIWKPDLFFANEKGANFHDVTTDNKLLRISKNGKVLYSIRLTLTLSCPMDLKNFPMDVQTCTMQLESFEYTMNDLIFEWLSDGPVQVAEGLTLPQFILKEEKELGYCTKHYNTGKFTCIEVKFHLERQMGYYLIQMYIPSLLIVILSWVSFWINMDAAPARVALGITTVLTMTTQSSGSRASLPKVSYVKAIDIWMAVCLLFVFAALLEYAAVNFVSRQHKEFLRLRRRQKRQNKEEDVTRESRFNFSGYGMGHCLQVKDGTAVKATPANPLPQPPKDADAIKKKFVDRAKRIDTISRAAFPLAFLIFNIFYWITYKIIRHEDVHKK
Method: as §1, §3

α1 GlyR = target: T6, α1 GlyR (Rattus norvegicus, UniProt P07727); test: cell-based; type: cell-based
T6 construct: expressed in transfected cells; host or cells: HEK293 (ATCC CRL-1573)
T6 sequence (P07727 29-457): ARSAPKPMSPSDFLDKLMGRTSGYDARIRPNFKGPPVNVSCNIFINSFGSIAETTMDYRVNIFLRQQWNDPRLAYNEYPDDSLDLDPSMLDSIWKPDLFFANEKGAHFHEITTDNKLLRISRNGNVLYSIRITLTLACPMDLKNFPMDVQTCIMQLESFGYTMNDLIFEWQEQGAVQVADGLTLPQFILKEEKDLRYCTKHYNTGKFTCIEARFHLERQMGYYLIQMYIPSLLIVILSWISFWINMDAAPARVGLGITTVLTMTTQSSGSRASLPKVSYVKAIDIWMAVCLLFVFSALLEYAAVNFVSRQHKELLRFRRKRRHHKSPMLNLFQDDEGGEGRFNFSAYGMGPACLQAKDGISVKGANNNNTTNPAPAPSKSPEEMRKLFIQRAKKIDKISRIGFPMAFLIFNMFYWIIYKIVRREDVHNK
Method: as §1, §3

α3 GlyR = target: T7, α3 GlyR (Rattus norvegicus, UniProt P24524); test: cell-based; type: cell-based
T7 construct: expressed in transfected cells; host or cells: HEK293 (ATCC CRL-1573)
T7 sequence (P24524 34-464): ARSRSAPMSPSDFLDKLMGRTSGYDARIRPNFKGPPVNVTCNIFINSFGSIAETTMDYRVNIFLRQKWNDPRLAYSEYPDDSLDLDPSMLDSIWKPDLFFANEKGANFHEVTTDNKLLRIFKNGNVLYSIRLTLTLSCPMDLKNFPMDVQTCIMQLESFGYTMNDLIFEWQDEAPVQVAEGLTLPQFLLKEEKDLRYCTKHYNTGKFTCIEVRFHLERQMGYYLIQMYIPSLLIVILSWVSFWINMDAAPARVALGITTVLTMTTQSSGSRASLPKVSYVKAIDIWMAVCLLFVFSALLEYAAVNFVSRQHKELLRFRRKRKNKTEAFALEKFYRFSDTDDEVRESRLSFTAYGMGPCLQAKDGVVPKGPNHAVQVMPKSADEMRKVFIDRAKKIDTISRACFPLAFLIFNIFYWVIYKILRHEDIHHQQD
Method: as §1, §3

[1] = in vivo studies; cited from earlier work
[2] = percentage change of glycine-evoked current

T1 sequence (P20781 23-496, one chain of several): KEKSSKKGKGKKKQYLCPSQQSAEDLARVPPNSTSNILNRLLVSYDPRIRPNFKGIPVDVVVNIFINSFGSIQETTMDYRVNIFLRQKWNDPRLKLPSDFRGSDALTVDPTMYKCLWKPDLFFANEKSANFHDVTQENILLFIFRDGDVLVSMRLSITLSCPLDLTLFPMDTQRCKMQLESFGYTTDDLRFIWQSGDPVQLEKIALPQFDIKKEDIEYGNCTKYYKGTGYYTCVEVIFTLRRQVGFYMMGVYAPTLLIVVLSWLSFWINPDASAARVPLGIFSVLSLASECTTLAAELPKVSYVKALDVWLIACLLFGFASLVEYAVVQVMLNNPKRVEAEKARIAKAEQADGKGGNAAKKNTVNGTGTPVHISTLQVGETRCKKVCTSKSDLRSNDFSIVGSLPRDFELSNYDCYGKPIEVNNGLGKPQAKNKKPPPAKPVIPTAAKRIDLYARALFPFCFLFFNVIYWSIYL
T2 sequence (P20781 23-496, one chain of several): as above
T3 sequence (P62813 28-455): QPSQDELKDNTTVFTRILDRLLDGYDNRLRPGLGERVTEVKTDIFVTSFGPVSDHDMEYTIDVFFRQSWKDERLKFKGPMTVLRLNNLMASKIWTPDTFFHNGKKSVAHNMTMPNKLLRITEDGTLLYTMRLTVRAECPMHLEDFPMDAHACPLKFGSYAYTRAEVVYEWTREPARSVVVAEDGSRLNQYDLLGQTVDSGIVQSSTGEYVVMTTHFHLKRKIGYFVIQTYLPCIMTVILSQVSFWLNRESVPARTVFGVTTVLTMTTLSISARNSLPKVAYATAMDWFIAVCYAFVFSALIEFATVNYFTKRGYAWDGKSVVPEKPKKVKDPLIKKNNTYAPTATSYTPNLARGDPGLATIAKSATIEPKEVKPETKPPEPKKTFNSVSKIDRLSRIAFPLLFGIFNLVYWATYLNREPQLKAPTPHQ
T3 sequence (P63138 26-474): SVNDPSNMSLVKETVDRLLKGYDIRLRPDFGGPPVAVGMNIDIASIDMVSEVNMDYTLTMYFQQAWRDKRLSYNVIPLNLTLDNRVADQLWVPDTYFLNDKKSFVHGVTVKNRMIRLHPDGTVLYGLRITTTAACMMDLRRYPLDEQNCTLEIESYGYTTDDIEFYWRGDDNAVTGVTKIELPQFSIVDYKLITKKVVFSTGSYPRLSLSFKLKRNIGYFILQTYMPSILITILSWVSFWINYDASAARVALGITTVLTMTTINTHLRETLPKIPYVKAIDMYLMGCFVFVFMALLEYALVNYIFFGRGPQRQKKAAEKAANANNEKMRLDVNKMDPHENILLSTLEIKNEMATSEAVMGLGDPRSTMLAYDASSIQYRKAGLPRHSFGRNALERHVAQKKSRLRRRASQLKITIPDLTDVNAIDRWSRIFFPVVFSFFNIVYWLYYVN
T3 sequence (P18508 39-466 partner): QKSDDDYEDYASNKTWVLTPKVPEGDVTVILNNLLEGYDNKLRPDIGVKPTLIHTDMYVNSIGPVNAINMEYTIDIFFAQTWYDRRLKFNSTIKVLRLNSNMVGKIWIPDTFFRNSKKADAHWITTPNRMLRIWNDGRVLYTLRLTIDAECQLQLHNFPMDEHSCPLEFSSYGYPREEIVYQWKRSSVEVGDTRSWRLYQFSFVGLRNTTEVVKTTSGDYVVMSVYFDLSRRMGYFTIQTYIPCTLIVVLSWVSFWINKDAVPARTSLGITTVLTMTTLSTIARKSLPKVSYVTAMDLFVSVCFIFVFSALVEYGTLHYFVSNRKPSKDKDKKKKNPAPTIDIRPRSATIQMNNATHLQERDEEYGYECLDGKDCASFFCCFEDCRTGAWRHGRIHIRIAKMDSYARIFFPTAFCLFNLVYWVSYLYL
T4 sequence (P20781 23-496, one chain of several): as the sequence (P20781 23-496, one chain of several) above

CCC1=N[C@H]2C[C@@]3(C(=O)N(OC)c4ccccc43)[C@H]3C[C@@H]1[C@@H]2CO3 [humantenmine]
Maximal Modulation Concentration (α3β GlyR): 300 µM | Maximal Modulation (α3β GlyR; [2]): −15.6 ± 3.8% | Maximal Modulation Concentration (α1β GlyR): 0.01 µM | Maximal Modulation (α1β GlyR; [2]): −7.33 ± 10.8% | modulation of GABAARs (in words) (α1β2γ2 GABAARs): did not elicit any detectable alterations; also recorded: insensitive | Maximal Modulation Concentration (α2β GlyR): 50 µM | Maximal Modulation (α2β GlyR; [2]): −10.3 ± 11.2% | Maximal Modulation Concentration (α2 GlyR): 50 µM | Maximal Modulation (α2 GlyR; [2]): 8.7 ± 9.6% | Maximal Modulation Concentration (α1 GlyR): 300 µM | modulation of glycine-evoked current (α1 GlyR; 300 μM of the alkaloid): −19.2 ± 7.8% | modulation of α1GlyRs (in words) (α1 GlyR; concentration range of 10 μM to 300 μM): did not display any detectable activity; also recorded: did not significantly modulate | Maximal Modulation (α1 GlyR; [2]): −19.2 ± 7.8% | Maximal Modulation Concentration (α3 GlyR): 0.1 µM | Maximal Modulation (α3 GlyR; [2]): −20.2 ± 10.7% | LD50 [1]: lower than 0.2 mg/kg
